Results: PubChem BioAssay (NCI)
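How tested: cells in 96-well plates exposed to compound for 48 hours at five concentrations. At the GI50, growth is halved. Definition used: TGI = concentration required for complete inhibition of growth.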

What was measured:
Assay in all cases: inhibition of tumour cell growth, NCI panel, 48 h
[1] = test system: 786-0 renal
[2] = test system: COLO 205 colon
[3] = test system: HCC-2998 colon
[4] = test system: HCT-116 colon
[5] = test system: HL-60(TB) leukemia
[6] = test system: NCI-H226 lung
[7] = test system: SF-295 CNS
[8] = test system: SK-MEL-28 melanoma
[9] = test system: SN12C renal
[10] = test system: MDA-MB-435

Structure (SMILES)	TGI [1]	TGI [2]	TGI [3]	TGI [4]	TGI [5]	TGI [6]	TGI [7]	TGI [8]	TGI [9]	TGI [10]	GI50 [2]	GI50 [3]	GI50 [4]	GI50 [5]	GI50 [10]	GI50 [6]	GI50 [7]	GI50 [8]
CCCCCCCCCCCC[N+]12CC[N+](C)(CC1)CC2	26.8 µM	16.9 µM	23 µM	> 100 µM	40.4 µM	66.5 µM	> 100 µM	> 100 µM	> 100 µM	–	–	–	–	–	–	–	–	–
COc1ccc([C@H]2CC3C(=O)N(c4ccc(OC)cc4)C(=O)C3c3[nH]c4ccccc4c32)cc1 (some centres undefined)	47.7 µM	> 100 µM	> 100 µM	> 100 µM	–	> 100 µM	78.3 µM	> 100 µM	> 100 µM	–	–	–	–	–	–	–	–	–
COC(=O)C(CCC1(C)OCCO1)=[N+]=[N-]	> 100 µM	> 100 µM	> 100 µM	> 100 µM	> 100 µM	> 100 µM	> 100 µM	> 100 µM	> 100 µM	–	–	–	–	–	–	–	–	–
O=S(=O)(c1ccccc1)c1ccc(-c2nc(-c3ccc4c(c3)Sc3ccccc3S4)cs2)cc1	45.1 µM	> 100 µM	> 100 µM	> 100 µM	> 100 µM	> 100 µM	47.4 µM	–	> 100 µM	> 100 µM	–	–	–	–	–	–	–	–
CN(C)CCC[N+]1=Nc2cccc3cccc(c23)N1	> 100 µM	–	> 100 µM	> 100 µM	47.5 µM	> 100 µM	> 100 µM	> 100 µM	> 100 µM	–	–	–	–	–	–	–	–	–
COc1cc2c[n+](C)c3c4cc(OC)c(OCc5ccccc5)cc4c(OCc4ccccc4)cc3c2cc1OC	35.5 µM	2.97 µM	32.4 µM	22 µM	–	43.9 µM	> 69.3 µM	20.2 µM	33.2 µM	10.5 µM	–	–	–	–	–	–	–	–
C=CCOC(=O)Cn1ccc(=O)[nH]c1=O	> 100 µM	> 100 µM	> 100 µM	> 100 µM	> 100 µM	> 100 µM	> 100 µM	> 100 µM	> 100 µM	–	–	–	–	–	–	–	–	–
Cn1cc2c3ccccc3nc-2c2ccccc21	11.1 µM	3.07 µM	3.04 µM	3.2 µM	4.48 µM	–	10.4 µM	6.43 µM	4.89 µM	6.33 µM	–	–	–	–	–	–	–	–
CC1CN(CCO)CCN1c1ccccc1 (centres undefined)	> 100 µM	> 100 µM	–	> 100 µM	99 µM	> 100 µM	> 100 µM	> 100 µM	> 100 µM	> 100 µM	–	–	–	–	–	–	–	–
O=c1/c(=C/c2ccccn2)sc2nc3cc4c(cc3n12)OCCO4	> 100 µM	> 100 µM	> 100 µM	> 100 µM	–	> 100 µM	> 100 µM	> 100 µM	> 100 µM	> 100 µM	–	–	–	–	–	–	–	–
COc1ccc2c3/c(=C\c4ccc(N(C)C)cc4)c4ccccc4n3[n+](C)c2c1	–	0.757 µM	0.31 µM	> 100 µM	–	1.68 µM	–	2.27 µM	–	1.83 µM	0.029 µM	< 0.0378 µM	0.0533 µM	0.051 µM	0.484 µM	0.244 µM	0.202 µM	0.173 µM
COc1ccc(N2C(=O)/C(=C/c3ccc(N(CCC#N)CCC#N)cc3)N=C2c2ccccc2)cc1	> 100 µM	> 100 µM	–	> 100 µM	> 100 µM	> 100 µM	> 100 µM	> 100 µM	> 100 µM	> 100 µM	–	–	–	–	–	–	–	–
Cc1cc(C)c2c(n1)S(=O)(=O)N(CCCN1CCN(c3cccc(Cl)c3)CC1)/C(=C(\O)c1ccc(Br)cc1)C2=O	38.2 µM	29.8 µM	–	52 µM	45.4 µM	–	86 µM	> 100 µM	53.2 µM	78.8 µM	–	–	–	–	–	–	–	–
C=C(C)CCC1C=[N+]([O-])OC(C)(C)C1(C)C (centres undefined)	> 100 µM	> 100 µM	> 100 µM	> 100 µM	73.8 µM	> 100 µM	> 100 µM	–	> 100 µM	> 100 µM	–	–	–	–	–	–	–	–
CC(C)(C)OC(=O)N1N=CCC1c1ccccc1 (centres undefined)	> 100 µM	> 100 µM	> 100 µM	> 100 µM	> 100 µM	> 100 µM	> 100 µM	–	> 100 µM	> 100 µM	–	–	–	–	–	–	–	–
O=C1CC(c2ccccc2)n2c(nc3ccccc32)N1 (centres undefined)	> 100 µM	> 100 µM	–	> 100 µM	> 100 µM	> 100 µM	> 100 µM	–	–	> 100 µM	–	–	–	–	–	–	–	–
O=c1[nH]c2ccc(CC(=S)N3CCOCC3)cc2o1	> 100 µM	> 100 µM	–	> 100 µM	> 100 µM	> 100 µM	> 100 µM	> 100 µM	–	> 100 µM	–	–	–	–	–	–	–	–
Cc1ccc(NC(=O)C2C3CCC(O3)C2C(=O)O)cc1 (centres undefined)	> 56.1 µM	> 59.8 µM	> 100 µM	> 54.7 µM	> 60.6 µM	> 100 µM	> 100 µM	> 100 µM	> 81.4 µM	–	–	–	–	–	–	–	–	–
CCN(C(=O)N[C@H](C(=O)N[C@@H](CSC)C(=O)N[C@@H](C)C(=O)OC)C(C)C)c1ccccc1	34.2 µM	32.4 µM	39.3 µM	30.9 µM	–	31.8 µM	36.7 µM	28.7 µM	43.1 µM	27.8 µM	–	–	–	–	–	–	–	–
O=C(CC(C(=O)c1cccs1)c1ccsc1)c1ccc(Cl)s1 (centres undefined)	> 100 µM	> 100 µM	> 100 µM	> 100 µM	> 100 µM	> 100 µM	–	> 100 µM	> 100 µM	> 100 µM	–	–	–	–	–	–	–	–
Cc1nn2c(c1C#N)NNc1c-2sc(=N)nnc1=O	> 100 µM	> 100 µM	–	> 100 µM	> 100 µM	–	> 100 µM	> 100 µM	> 100 µM	–	–	–	–	–	–	–	–	–
N#CC1=C(N)N(/N=C/c2ccco2)C(c2ccco2)C1(C#N)C#N (centres undefined)	33.1 µM	28.9 µM	34.7 µM	25.3 µM	7.69 µM	37.7 µM	79 µM	–	70 µM	41.4 µM	–	–	–	–	–	–	–	–
COC(=O)C(=O)C(C(=O)OC)C(=O)C(=O)Nc1c(Cl)cc([N+](=O)[O-])cc1Cl (centres undefined)	> 100 µM	–	> 100 µM	> 100 µM	> 100 µM	> 100 µM	> 100 µM	> 100 µM	> 100 µM	> 100 µM	–	–	–	–	–	–	–	–
